Data published in US20090170788A1, “NOVEL USE OF 1, 2, 3, 4, 6-PENTA-O-GALLOYL-BETA-D-GLUCOSE” (priority 2006, published 2009).

Assays:
[1] = test system: albino SKH-1 hairless mice; assay: Wrinkle formation caused by UV light in hairless mouse model (skin photographs, skin replica); assay type: in vivo; details: UV B 10 weeks, topical 10 mg/200 μl/4 cm^2 starting from 4 weeks after UV irradiation
Text: Whether 1,2,3,4,6-penta-O-galloyl-beta-D-glucose has the effect of inhibiting wrinkle formation caused by UV light was examined. First, 7-week-old female hairless mice (albino SKH-1 hairless mice, Hanlim Experimental Animal Co., Suwon, Korea) were divided into the following three groups, each consisting of 10 animals.
(§1) The mice of each of the groups were put in an UV box equipped with an UV B lamp, and were irradiated with UV light at a dose of 100 mJ/cm^2 corresponding to minimal erythemal dose (MED). UV light was irradiated one time a day, three times a week for 4 weeks while increasing the dose of UV light from 100 mJ/cm^2 at the first week to 200 mJ/cm^2 at the second week, 300 mJ/cm^2 at the third week and 400 mJ/cm^2 at the fourth week so as to adapt the mice to UV light. Following the fourth week, the mice were irradiated with UV light at a dose of 400 mJ/cm^2 for 6 weeks, and thus the hairless mice were exposed to UV light for a total of 10 weeks, thereby inducing skin photoaging. (Kilgman L H, Clin Dermatol 14:183-195, 1996). In the case of the test group, starting from 4 weeks after UV irradiation, a composition containing 1,2,3,4,6-penta-O-galloyl-beta-D-glucose was dissolved in a propylene glycol solution containing 30% ethanol (7:3 [v/v] propylene glycol:ethanol) and applied to the skin of the mice in an amount of 10 mg/200 μl/4 cm^2. […]

type I procollagen [2] = assay: Type I procollagen expression in skin of UV-irradiated hairless mice (immunohistochemistry); assay type: in vivo, mouse; details: UV B 10 weeks, topical 10 mg/200 μl/4 cm^2
Text: as §1, with “cm^2. In the case of the group treated with UV light alone, a composition containing no 1,2,3,4,6-penta-O-galloyl-beta-D-glucose was applied to the mice in an amount of 200 μl/4 cm^2 in the same manner as the test group.” for “cm^2.”

[3] = test system: albino SKH-1 hairless mice; assay: Epidermal thickening induced by UV light in hairless mouse model (H&E staining); assay type: in vivo; details: UV B 10 weeks, topical 10 mg/200 μl/4 cm^2
Text: as §1, with “cm^2. In the case of the group treated with UV light alone, a composition containing no 1,2,3,4,6-penta-O-galloyl-beta-D-glucose was applied to the mice in an amount of 200 μl/4 cm^2 in the same manner as the test group.” for “cm^2.”

[4] = test system: albino SKH-1 hairless mice; assay: Collagen formation/degradation after UV light in hairless mouse model (masson trichome staining); assay type: in vivo; details: UV B 10 weeks, topical 10 mg/200 μl/4 cm^2
Text: as §1, with “cm^2. In the case of the group treated with UV light alone, a composition containing no 1,2,3,4,6-penta-O-galloyl-beta-D-glucose was applied to the mice in an amount of 200 μl/4 cm^2 in the same manner as the test group.” for “cm^2.”

MMP-1 [5] = assay: MMP-1 expression in skin of UV-irradiated hairless mice (immunohistochemistry); assay type: in vivo, mouse; details: UV B 10 weeks, topical 10 mg/200 μl/4 cm^2
Text: as §1, with “cm^2. In the case of the group treated with UV light alone, a composition containing no 1,2,3,4,6-penta-O-galloyl-beta-D-glucose was applied to the mice in an amount of 200 μl/4 cm^2 in the same manner as the test group.” for “cm^2.”

type I procollagen [6] = assay: Type I procollagen expression (ELISA) in UV-irradiated human normal dermal fibroblasts; assay type: cell-based
Description: (§2) Human normal dermal fibroblasts, which were isolated and cultured from the skin dermal layer cut from infant phimosis, were seeded into a 6-well plate at a density of 1×10^5 cells/well, and then cultured in 10% fetal bovine serum-containing DMEM (Dulbecco's modified Eagle's medium) for 24 hours. After the culture, the cells were washed three times with phosphate buffered saline (PBS) and then irradiated with UV A and […] in the following manner in order to induce skin aging. UV A was irradiated using a UV A lamp (Sankyo Denki FL8BL lamp, Sankyo Denki Co., Japan) to a total energy dose of 50 mJ/cm^2 at a rate of 27 mW/cm^2/sec, and UV B was irradiated using a UV B lamp (Sankyo Denki G9T5E lamp, Sankyo Denki Co., Japan) to a total energy dose of 170 mJ/cm^2 at a rate of 1.15 mW/cm^2/sec. […] In order to examine if the skin was aged after the culture, the expression levels of skin intercellular matrix component type I procollagen and its degradation enzyme MMP-1 were measured using a type I procollagen ELISA kit (Procollagen Type I C-Peptide EIA kit, TaKaRa, Japan) and a MMP-1 ELISA kit (MMP-1 human, ELISA system, Biotrak Assay, Amersham Biosciences, USA) according to manufacturer's protocols. […]

COX-2 = COX-2 protein expression (Western blot) in UV B-irradiated human keratinocytes (HaCaT); assay type: cell-based; details: HaCaT cells, UV B 10 mJ/cm^2, 1, 10, 30, 50 μM, 12 hours
Description: Human keratinocytes (HaCaT cell) provided by professor N. Fusenig (German Cancer Research, Germany) were seeded into a 100 mm culture dish to 1.3×10^6 cells, and then cultured in a DMEM medium containing 10% fetal bovine serum for 24 hours. After the culture, the cells were washed three times with phosphate buffered saline, and then irradiated with UV B in the following manner in order to induce skin aging. UV B was irradiated using an UV B lamp to a total energy dose of 10 mJ/cm^2 at a rate of 0.6 mW/cm^2/sec. Just after the UV irradiation, the cells were washed again with phosphate buffered saline, and 1,2,3,4,6-penta-O-galloyl-beta-D-glucose was added to a DMEM medium containing no fetal bovine serum at concentrations of 1, 10, 30, 50 μM. Then, the cells were further cultured in the medium for 12 hours. Test groups were divided as follows: After the 12-hr culture, the cells were washed with cold phosphate buffered saline, and then treated with lysis buffer to separate a cell protein. Then, the cell protein was subjected to Western blot analysis using a COX-2 antibody (Santa Cruz Biotch., USA) and a horseradish peroxidase-conjugated secondary antibody (ZYMED Laboratories, USA). As a loading control group, […] was used.

MMP-1 [7] = assay: MMP-1 expression (ELISA) in UV-irradiated human normal dermal fibroblasts; assay type: cell-based
Description: as §2

[8] = human normal dermal fibroblasts, UV A 50 mJ/cm^2 or UV B 170 mJ/cm^2, 1 and 10 μg/ml, 24 hours, concentration-dependent, vs UV light alone
[9] = in vitro, UV-irradiated human skin fibroblasts, comparison with EGCG control group

With `O=C(OC[C@H]1O[C@@H](OC(=O)c2cc(O)c(O)c(O)c2)[C@H](OC(=O)c2cc(O)c(O)c(O)c2)[C@@H](OC(=O)c2cc(O)c(O)c(O)c2)[C@@H]1OC(=O)c1cc(O)c(O)c(O)c1)c1cc(O)c(O)c(O)c1` [1,2,3,4,6-penta-O-galloyl-beta-D-glucose] the “frequency of wrinkle formation” value [1] was “reduced the frequency of wrinkle formation”, the “expression of type I procollagen in skin tissue” value (type I procollagen [2]) was “the expression of type I procollagen was increased compared to the group treated with UV light alone” and the “thickening of the skin epidermal layer” value [3] was “the thickening of the skin epidermal layer was significantly decreased”. For the same compound, the amount of collagen [4] was “the amount of collagen was increased compared to the group treated with UV light alone”, the “amount of damaged collagen” value [4] was “the amount of damaged collagen was decreased” and the “expression of MMP-1 in skin tissue” value (MMP-1 [5]) was “this increase in expression was inhibited”. For the same compound, the “expression of type I procollagen” value (type I procollagen [6]; [8]) was “an increase in the expression of type I procollagen”, the “expression of type I procollagen compared to EGCG” value (type I procollagen [6]; [9]) was “marked increase in the expression of type I procollagen compared to the case of treatment with EGCG” and the “expression of COX-2” value (COX-2) was “reduced the expression of COX-2 in a concentration-dependent manner”. For the same compound, the “expression of MMP-1” value (MMP-1 [7]; [8]) was “a decrease in the expression of MMP-1” and the “inhibitory effect on MMP-1 compared to EGCG” value (MMP-1 [7]; [9]) was “much more superior to the MMP-1 inhibitory effect of EGCG”.
